Read-outs that look alike come from different tables or passages of the source.
Legend:
[1] = tested on: HIV (human immunodeficiency virus); format: in vivo; conditions: patient
Experimental: (§1) The therapeutic effect of 15-deoxyspergualin for immunodeficiency was clinically investigated by administering the compound to HIV-infected patients. The details are shown below.
To a patient who was diagnosed as a HIV positive 1 year and 10 months ago, the 15-deoxyspergualin injection of Example 1 later described was intravenously administered for consecutive 15 days in a dose of 0.15 mg/kg body weight/day. This cycle was made one course. Then, no drug period was set for 6 weeks followed by repetition with 2 courses with the same interval between the second course and the third couse, as well.
The CD4^+/CD8^+ level was measured immediately before and after each course and, 3 months and 2 years after the completion of Course 3, namely, 8 measurements in total.

[2] = tested on: HIV (human immunodeficiency virus); test: Test Example 2: clinical administration of 15-deoxyspergualin injection to five HIV positive carriers; format: in vivo; conditions: 0.15 mg/kg body weight/day i.v. 14 days per course; for fatigue (malaise) of the worst kind: 3 courses
Experimental: as §1
To five (5) carriers diagnosed as HIV positive, the 15-deoxyspergualin injection was intravenously administered for consecutive 14 days in a dose of 0.15 mg/kg body weight/day. This cycle was made one course. Then, no drug period was set for 6 weeks followed by repetition with 2 courses with the same interval between the second course and the third course, as well. The CD4^+ cell count, CD4^+ /CD8^+ level and virus load, etc. were measured immediately before and after each course and 6 weeks after the completion of Course 3, respectively.

[3] = throughout the entire period of the treatment
[4] = Case 1, 6 Weeks after completion of Course 3
[5] = Case 1, Immediately after Course 1
[6] = Case 1, Immediately after Course 2
[7] = Case 1, Immediately after Course 3
[8] = Case 1, Immediately before Course 1 (before treatment)
[9] = Case 1, Immediately before Course 2
[10] = Case 1, Immediately before Course 3
[11] = Case 2, 6 Weeks after completion of Course 3
[12] = Case 2, Immediately after Course 1
[13] = Case 2, Immediately after Course 2
[14] = Case 2, Immediately after Course 3
[15] = Case 2, Immediately before Course 1 (before treatment)
[16] = Case 2, Immediately before Course 2
[17] = Case 2, Immediately before Course 3
[18] = Case 3, 6 Weeks after completion of Course 3
[19] = Case 3, Immediately after Course 1
[20] = Case 3, Immediately after Course 2
[21] = Case 3, Immediately after Course 3
[22] = Case 3, Immediately before Course 1 (before treatment)
[23] = Case 3, Immediately before Course 2
[24] = Case 3, Immediately before Course 3
[25] = Case 4, 6 Weeks after completion of Course 3
[26] = Case 4, Immediately after Course 1
[27] = Case 4, Immediately after Course 2
[28] = Case 4, Immediately after Course 3
[29] = Case 4, Immediately before Course 1 (before treatment)
[30] = Case 4, Immediately before Course 2
[31] = Case 4, Immediately before Course 3
[32] = Case 5, 6 Weeks after completion of Course 3
[33] = Case 5, Immediately after Course 1
[34] = Case 5, Immediately after Course 2
[35] = Case 5, Immediately after Course 3
[36] = Case 5, Immediately before Course 1 (before treatment)
[37] = Case 5, Immediately before Course 2
[38] = Case 5, Immediately before Course 3

N=C(N)NCCCCCCC(=O)NC(O)C(=O)NCCCCNCCCN (centres unmarked) [15-deoxyspergualin]
CD4^+/CD8^+ level ([1]; 0.15 mg/kg body weight/day i.v. 15 days per course, 2 Years after completion of Course 3): 0.90
CD4^+/CD8^+ level ([1]; 0.15 mg/kg body weight/day i.v. 15 days per course, 3 Months after completion of Course 3): 0.93
CD4^+/CD8^+ level ([1]; 0.15 mg/kg body weight/day i.v. 15 days per course, Immediately after Course 1): 0.72
CD4^+/CD8^+ level ([1]; 0.15 mg/kg body weight/day i.v. 15 days per course, Immediately after Course 2): 0.75
CD4^+/CD8^+ level ([1]; 0.15 mg/kg body weight/day i.v. 15 days per course, Immediately after Course 3): 0.84
CD4^+/CD8^+ level ([1]; 0.15 mg/kg body weight/day i.v. 15 days per course, Immediately before Course 1 (before treatment)): 0.68
CD4^+/CD8^+ level ([1]; 0.15 mg/kg body weight/day i.v. 15 days per course, Immediately before Course 2): 0.78
CD4^+/CD8^+ level ([1]; 0.15 mg/kg body weight/day i.v. 15 days per course, Immediately before Course 3): 0.87
decrease of CD4^+/CD8^+ level immediately after Courses 2 and 3 versus immediately before the courses ([1]; 0.15 mg/kg body weight/day i.v. 15 days per course, attributed to weak bone marrow suppression): 0.03
complaint of fatigue ([1]; 0.15 mg/kg body weight/day i.v. 15 days, after Course 1 was finished): disappeared completely
leucocyte count [1, 3]: approximately 6200
other side effect [1, 3]: no other side effect was observed at all
CD4^+ T cell counts [2, 4]: 760 µL⁻¹
CD4^+/CD8^+ levels [2, 4]: 0.93
Virus loads [2, 4]: 6000 particles/ml
CD4^+ T cell counts [2, 5]: 680 µL⁻¹
CD4^+/CD8^+ levels [2, 5]: 0.82
Virus loads [2, 5]: 8600 particles/ml
CD4^+ T cell counts [2, 6]: 740 µL⁻¹
CD4^+/CD8^+ levels [2, 6]: 0.86
Virus loads [2, 6]: 8000 particles/ml
CD4^+ T cell counts [2, 7]: 750 µL⁻¹
CD4^+/CD8^+ levels [2, 7]: 0.93
Virus loads [2, 7]: 7000 particles/ml
CD4^+ T cell counts [2, 8]: 680 µL⁻¹
CD4^+/CD8^+ levels [2, 8]: 0.78
Virus loads [2, 8]: 12000 particles/ml
CD4^+ T cell counts [2, 9]: 730 µL⁻¹
CD4^+/CD8^+ levels [2, 9]: 0.80
Virus loads [2, 9]: 9000 particles/ml
CD4^+ T cell counts [2, 10]: 720 µL⁻¹
CD4^+/CD8^+ levels [2, 10]: 0.85
Virus loads [2, 10]: 8200 particles/ml
CD4^+ T cell counts [2, 11]: 740 µL⁻¹
CD4^+/CD8^+ levels [2, 11]: 0.78
Virus loads [2, 11]: 13000 particles/ml
CD4^+ T cell counts [2, 12]: 740 µL⁻¹
CD4^+/CD8^+ levels [2, 12]: 0.72
Virus loads [2, 12]: 13000 particles/ml
CD4^+ T cell counts [2, 13]: 730 µL⁻¹
CD4^+/CD8^+ levels [2, 13]: 0.77
Virus loads [2, 13]: 14000 particles/ml
CD4^+ T cell counts [2, 14]: 750 µL⁻¹
CD4^+/CD8^+ levels [2, 14]: 0.79
Virus loads [2, 14]: 14000 particles/ml
CD4^+ T cell counts [2, 15]: 750 µL⁻¹
CD4^+/CD8^+ levels [2, 15]: 0.76
Virus loads [2, 15]: 15000 particles/ml
CD4^+ T cell counts [2, 16]: 750 µL⁻¹
CD4^+/CD8^+ levels [2, 16]: 0.78
Virus loads [2, 16]: 13000 particles/ml
CD4^+ T cell counts [2, 17]: 760 µL⁻¹
CD4^+/CD8^+ levels [2, 17]: 0.80
Virus loads [2, 17]: 15000 particles/ml
CD4^+ T cell counts [2, 18]: 800 µL⁻¹
CD4^+/CD8^+ levels [2, 18]: 0.90
Virus loads [2, 18]: 6000 particles/ml
CD4^+ T cell counts [2, 19]: 570 µL⁻¹
CD4^+/CD8^+ levels [2, 19]: 0.73
Virus loads [2, 19]: 11000 particles/ml
CD4^+ T cell counts [2, 20]: 600 µL⁻¹
CD4^+/CD8^+ levels [2, 20]: 0.75
Virus loads [2, 20]: 7000 particles/ml
CD4^+ T cell counts [2, 21]: 720 µL⁻¹
CD4^+/CD8^+ levels [2, 21]: 0.90
Virus loads [2, 21]: 6000 particles/ml
CD4^+ T cell counts [2, 22]: 550 µL⁻¹
CD4^+/CD8^+ levels [2, 22]: 0.69
Virus loads [2, 22]: 17000 particles/ml
CD4^+ T cell counts [2, 23]: 590 µL⁻¹
CD4^+/CD8^+ levels [2, 23]: 0.72
Virus loads [2, 23]: 11000 particles/ml
CD4^+ T cell counts [2, 24]: 650 µL⁻¹
CD4^+/CD8^+ levels [2, 24]: 0.84
Virus loads [2, 24]: 8000 particles/ml
CD4^+ cell counts [2, 25]: 910 µL⁻¹
CD4^+/CD8^+ levels [2, 25]: 0.92
Virus loads [2, 25]: 13000 particles/ml
CD4^+ cell counts [2, 26]: 710 µL⁻¹
CD4^+/CD8^+ levels [2, 26]: 0.75
Virus loads [2, 26]: 20000 particles/ml
CD4^+ cell counts [2, 27]: 760 µL⁻¹
CD4^+/CD8^+ levels [2, 27]: 0.85
Virus loads [2, 27]: 18000 particles/ml
CD4^+ cell counts [2, 28]: 850 µL⁻¹
CD4^+/CD8^+ levels [2, 28]: 0.94
Virus loads [2, 28]: 15000 particles/ml
CD4^+ cell counts [2, 29]: 640 µL⁻¹
CD4^+/CD8^+ levels [2, 29]: 0.73
Virus loads [2, 29]: 25000 particles/ml
CD4^+ cell counts [2, 30]: 770 µL⁻¹
CD4^+/CD8^+ levels [2, 30]: 0.83
Virus loads [2, 30]: 20000 particles/ml
CD4^+ cell counts [2, 31]: 840 µL⁻¹
CD4^+/CD8^+ levels [2, 31]: 0.90
Virus loads [2, 31]: 17000 particles/ml
CD4^+ cell counts [2, 32]: 900 µL⁻¹
CD4^+/CD8^+ levels [2, 32]: 0.90
Virus loads [2, 32]: 6000 particles/ml
CD4^+ cell counts [2, 33]: 750 µL⁻¹
CD4^+/CD8^+ levels [2, 33]: 0.80
Virus loads [2, 33]: 6000 particles/ml
CD4^+ cell counts [2, 34]: 820 µL⁻¹
CD4^+/CD8^+ levels [2, 34]: 0.83
Virus loads [2, 34]: 6500 particles/ml
CD4^+ cell counts [2, 35]: 890 µL⁻¹
CD4^+/CD8^+ levels [2, 35]: 0.87
Virus loads [2, 35]: 6000 particles/ml
CD4^+ cell counts [2, 36]: 780 µL⁻¹
CD4^+/CD8^+ levels [2, 36]: 0.79
Virus loads [2, 36]: 6000 particles/ml
CD4^+ cell counts [2, 37]: 810 µL⁻¹
CD4^+/CD8^+ levels [2, 37]: 0.81
Virus loads [2, 37]: 7000 particles/ml
CD4^+ cell counts [2, 38]: 880 µL⁻¹
CD4^+/CD8^+ levels [2, 38]: 0.85
Virus loads [2, 38]: 6500 particles/ml
fatigue (malaise) of the worst kind ([2]; Cases 1, 3 and 4): improved
fatigue (malaise) of the worst kind ([2]; Cases 2 and 5): no change

Reference: patent publication EP1038533A1, “MEDICINAL COMPOSITIONS FOR TREATING IMMUNODEFICIENCY DISEASES” (Nippon Kayaku Kabushiki Kaisha, priority 1997, dated 1999)
